Measurements taken from publication PMC7557582, “Broad-Spectrum Antimicrobial Activity and Improved Stability of a D-Amino Acid Enantiomer of DMPC-10A, the Designed Derivative of Dermaseptin Truncates” (Antibiotics, 2020).

How the values were obtained:
[1] = system: S. aureus (NCTC 10788); assay type: cell-based, Staphylococcus aureus; settings: S. aureus (NCTC 10788); broth-dilution, MHB pH 7.4, 37 °C; positive control
Protocol: (§1) Gram-positive bacteria Staphylococcus aureus (NCTC 10788) and Enterococcus faecalis (NCTC 12697) and Gram-negative bacteria Escherichia coli (NCTC 10418), Pseudomonas aeruginosa (ATCC 27853), and Klebsiella pneumoniae (ATCC 43816) were tested. […] All the bacterial strains were inoculated in Mueller Hinton broth (MHB), pH 7.4 (Oxiod, Basingstoke, UK) at 37 °C. Then, the log-phase bacteria were mixed with the peptide at the concentrations from 512 to 1 µM in two-fold dilution, in a 96 well-plate. The wells contained sterilized MHB and bacteria cultures were employed as a blank and growth control, respectively.

[2] = system: MRSA (NCTC 12493); assay type: cell-based, methicillin-resistant S. aureus; settings: MRSA (NCTC 12493); broth-dilution, MHB pH 7.4, 37 °C; positive control
Protocol: as §1

[3] = system: E. faecalis (NCTC 12697); assay type: cell-based, Enterococcus faecalis; settings: E. faecalis (NCTC 12697); broth-dilution, MHB pH 7.4, 37 °C; positive control
Protocol: as §1

[4] = system: E. coli (NCTC 10418); assay type: cell-based, Escherichia coli; settings: E. coli (NCTC 10418); broth-dilution, MHB pH 7.4, 37 °C; positive control
Protocol: as §1

[5] = system: K. pneumoniae (ATCC 43816); assay type: cell-based, Klebsiella pneumoniae; settings: K. pneumoniae (ATCC 43816); broth-dilution, MHB pH 7.4, 37 °C; positive control
Protocol: as §1

[6] = system: K. pneumoniae (ATCC BAA 1705); assay type: cell-based, Klebsiella pneumoniae; settings: K. pneumoniae (ATCC BAA 1705); broth-dilution, MHB pH 7.4, 37 °C; positive control
Protocol: as §1

[7] = system: K. pneumoniae (ATCC BAA 2342); assay type: cell-based, Klebsiella pneumoniae; settings: K. pneumoniae (ATCC BAA 2342); broth-dilution, MHB pH 7.4, 37 °C; positive control
Protocol: as §1

[8] = system: P. aeruginosa (ATCC 27853); assay type: cell-based, Pseudomonas aeruginosa; settings: P. aeruginosa (ATCC 27853); broth-dilution, MHB pH 7.4, 37 °C; positive control
Protocol: as §1

Row | Compound | MIC of antibiotic [1] | MIC of antibiotic [2] | MIC of antibiotic [3] | MIC of antibiotic [4] | MIC of antibiotic [5] | MIC of antibiotic [6] | MIC of antibiotic [7] | MIC of antibiotic [8]
1 | CNC(C)C1CCC(N)C(OC2C(N)CC(N)C(OC3OCC(C)(O)C(NC)C3O)C2O)O1 (stereo not shown) [Gentamicin, reference compound] | <0.0625/<0.13 µg/mL | 0.125/0.26 µg/mL | 4/8.38 µg/mL | 1/2.09 µg/mL | 1/2.09 µg/mL | 2/4.19 µg/mL | 4/8.38 µg/mL | 0.25/0.52 µg/mL
2 | CCn1cc(C(=O)O)c(=O)c2cc(F)c(N3CCNCC3)cc21 [Norfloxacin, reference compound] | 2/6.26 µg/mL | 2/6.26 µg/mL | 4/12.53 µg/mL | 1/3.13 µg/mL | 2/6.26 µg/mL | >32/>100.21 µg/mL | >32/>100.21 µg/mL | 2/6.26 µg/mL
3 | CN[C@H](CC(C)C)C(=O)N[C@H]1C(=O)N[C@@H](CC(N)=O)C(=O)N[C@H]2C(=O)N[C@H]3C(=O)N[C@H](C(=O)N[C@H](C(=O)O)c4cc(O)cc(O)c4-c4cc3ccc4O)[C@H](O)c3ccc(c(Cl)c3)Oc3cc2cc(c3O[C@@H]2O[C@H](CO)[C@@H](O)[C@H](O)[C@H]2O[C@H]2C[C@](C)(N)[C@H](O)[C@H](C)O2)Oc2ccc(cc2Cl)[C@H]1O [Vancomycin, reference compound] | 0.125/0.08 µg/mL | 0.125/0.08 µg/mL | 1/0.69 µg/mL |  |  |  |  | 
